Measurements published in PubChem BioAssay (NCI).
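Abbreviation: GI50, concentration required for 50% inhibition of growth. The concentration for full growth arrest is given as TGI.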

Key:
Assay in all cases: NCI anticancer screen, dose series, 384-well format
MDA-MB-468 breast = system: MDA-MB-468 breast
SW-620 colon = system: SW-620 colon
HCT-15 colon = system: HCT-15 colon
SF-539 CNS = system: SF-539 CNS
CAKI-1 renal = system: CAKI-1 renal
DU-145 prostate = system: DU-145 prostate
K-562 leukemia = system: K-562 leukemia
HT29 colon = system: HT29 colon
COLO 205 colon = system: COLO 205 colon
MCF7 breast = system: MCF7 breast
NCI-H322M lung = system: NCI-H322M lung
U251 glioblastoma = system: U251 glioblastoma
NCI-H522 lung = system: NCI-H522 lung
LOX IMVI melanoma = system: LOX IMVI melanoma
SF-268 CNS = system: SF-268 CNS
KM12 colon = system: KM12 colon
SNB-19 CNS = system: SNB-19 CNS
SK-MEL-5 melanoma = system: SK-MEL-5 melanoma
PC-3 prostate = system: PC-3 prostate
MDA-MB-435 melanoma = system: MDA-MB-435 melanoma
HOP-62 NSCLC = system: HOP-62 NSCLC
NCI-H226 lung = system: NCI-H226 lung
SNB-75 CNS = system: SNB-75 CNS
HCC-2998 colon = system: HCC-2998 colon
OVCAR-4 ovarian = system: OVCAR-4 ovarian
786-0 renal = system: 786-0 renal
HCT-116 colon = system: HCT-116 colon
SN12C renal = system: SN12C renal
RPMI-8226 leukemia = system: RPMI-8226 leukemia
HS 578T breast = system: HS 578T breast
BT-549 breast = system: BT-549 breast
A498 renal = system: A498 renal
SK-MEL-28 melanoma = system: SK-MEL-28 melanoma
SK-OV-3 ovarian = system: SK-OV-3 ovarian
IGROV1 ovarian = system: IGROV1 ovarian
HOP-92 NSCLC = system: HOP-92 NSCLC
NCI-H460 NSCLC = system: NCI-H460 NSCLC
OVCAR-3 ovarian = system: OVCAR-3 ovarian
SF-295 CNS = system: SF-295 CNS
CCRF-CEM leukemia = system: CCRF-CEM leukemia
ACHN renal = system: ACHN renal
UACC-257 melanoma = system: UACC-257 melanoma
MALME-3M melanoma = system: MALME-3M melanoma
TK-10 renal = system: TK-10 renal
MOLT-4 leukemia = system: MOLT-4 leukemia
NCI/ADR-RES ovarian = system: NCI/ADR-RES ovarian
SK-MEL-2 melanoma = system: SK-MEL-2 melanoma
UACC-62 melanoma = system: UACC-62 melanoma
A549 NSCLC = system: A549 NSCLC
NCI-H23 lung = system: NCI-H23 lung
OVCAR-8 ovarian = system: OVCAR-8 ovarian
EKVX NSCLC = system: EKVX NSCLC
RXF 393 renal = system: RXF 393 renal
HL-60(TB) leukemia = system: HL-60(TB) leukemia
M14 melanoma = system: M14 melanoma

Question: For O=C1C=CC(Nc2ccccc2[N+](=O)[O-])C1Nc1ccccc1[N+](=O)[O-] (stereo not given), which GI50 (MDA-MB-468 breast) is on record?
Answer: 510 nM

Question: And the TGI (MDA-MB-468 breast)?
Answer: 967 nM

Question: And the GI50 (SW-620 colon)?
Answer: 1730 nM

Question: What about the TGI (SW-620 colon) of the same molecule?
Answer: 3.15 µM

Question: What about the GI50 (HCT-15 colon) of the same molecule?
Answer: 1560 nM

Question: And the TGI (HCT-15 colon)?
Answer: 2940 nM

Question: And the GI50 (SF-539 CNS)?
Answer: 1590 nM

Question: And the TGI (SF-539 CNS)?
Answer: 2950 nM

Question: What about the GI50 (CAKI-1 renal) of the same molecule?
Answer: 1290 nM

Question: And the TGI (CAKI-1 renal)?
Answer: 2580 nM

Question: What about the GI50 (DU-145 prostate) of the same molecule?
Answer: 4.87 µM

Question: And the TGI (DU-145 prostate)?
Answer: 15.7 µM

Question: And the GI50 (K-562 leukemia)?
Answer: 4.85 µM

Question: What about the TGI (K-562 leukemia) of the same molecule?
Answer: 15 µM

Question: And the GI50 (HT29 colon)?
Answer: 1620 nM

Question: What about the TGI (HT29 colon) of the same molecule?
Answer: 3.15 µM

Question: What about the GI50 (COLO 205 colon) of the same molecule?
Answer: 1910 nM

Question: What about the TGI (COLO 205 colon) of the same molecule?
Answer: 3.37 µM

Question: What about the GI50 (MCF7 breast) of the same molecule?
Answer: 1640 nM

Question: And the TGI (MCF7 breast)?
Answer: 3.04 µM

Question: What about the GI50 (NCI-H322M lung) of the same molecule?
Answer: 13.8 µM

Question: What about the TGI (NCI-H322M lung) of the same molecule?
Answer: 26.9 µM

Question: And the GI50 (U251 glioblastoma)?
Answer: 2110 nM

Question: And the TGI (U251 glioblastoma)?
Answer: 3.78 µM

Question: And the GI50 (NCI-H522 lung)?
Answer: 1390 nM

Question: What about the TGI (NCI-H522 lung) of the same molecule?
Answer: 2690 nM

Question: What about the GI50 (LOX IMVI melanoma) of the same molecule?
Answer: 1840 nM

Question: What about the TGI (LOX IMVI melanoma) of the same molecule?
Answer: 3.47 µM

Question: What about the GI50 (SF-268 CNS) of the same molecule?
Answer: 2340 nM

Question: What about the TGI (SF-268 CNS) of the same molecule?
Answer: 4.42 µM

Question: What about the GI50 (KM12 colon) of the same molecule?
Answer: 2120 nM

Question: What about the TGI (KM12 colon) of the same molecule?
Answer: 5.95 µM

Question: And the GI50 (SNB-19 CNS)?
Answer: 5.2 µM

Question: And the TGI (SNB-19 CNS)?
Answer: 15.6 µM

Question: And the GI50 (SK-MEL-5 melanoma)?
Answer: 1750 nM

Question: What about the TGI (SK-MEL-5 melanoma) of the same molecule?
Answer: 3.2 µM

Question: What about the GI50 (PC-3 prostate) of the same molecule?
Answer: 1580 nM

Question: What about the TGI (PC-3 prostate) of the same molecule?
Answer: 2960 nM

Question: What about the GI50 (MDA-MB-435 melanoma) of the same molecule?
Answer: 2400 nM

Question: And the TGI (MDA-MB-435 melanoma)?
Answer: 5.28 µM

Question: What about the GI50 (HOP-62 NSCLC) of the same molecule?
Answer: 2300 nM

Question: And the TGI (HOP-62 NSCLC)?
Answer: 3.94 µM

Question: What about the GI50 (NCI-H226 lung) of the same molecule?
Answer: 1530 nM

Question: And the TGI (NCI-H226 lung)?
Answer: 2930 nM

Question: What about the GI50 (SNB-75 CNS) of the same molecule?
Answer: 4.16 µM

Question: What about the TGI (SNB-75 CNS) of the same molecule?
Answer: 10.1 µM

Question: What about the GI50 (HCC-2998 colon) of the same molecule?
Answer: 2050 nM

Question: What about the TGI (HCC-2998 colon) of the same molecule?
Answer: 4.78 µM

Question: And the GI50 (OVCAR-4 ovarian)?
Answer: 1780 nM

Question: What about the TGI (OVCAR-4 ovarian) of the same molecule?
Answer: 3.34 µM

Question: And the GI50 ([…]-0 renal)?
Answer: 1780 nM

Question: And the TGI (786-0 renal)?
Answer: 3.32 µM

Question: What about the GI50 (HCT-116 colon) of the same molecule?
Answer: 1320 nM

Question: And the TGI (HCT-116 colon)?
Answer: 2640 nM

Question: What about the GI50 (SN12C renal) of the same molecule?
Answer: 1760 nM

Question: What about the TGI (SN12C renal) of the same molecule?
Answer: 3.15 µM

Question: And the GI50 (RPMI-8226 leukemia)?
Answer: 222 nM

Question: What about the TGI (RPMI-8226 leukemia) of the same molecule?
Answer: 410 nM

Question: And the GI50 (HS 578T breast)?
Answer: 1840 nM

Question: What about the TGI (HS 578T breast) of the same molecule?
Answer: 3.42 µM

Question: And the GI50 (BT-549 breast)?
Answer: 1580 nM

Question: What about the TGI (BT-549 breast) of the same molecule?
Answer: 3.08 µM

Question: And the GI50 (A498 renal)?
Answer: 2010 nM

Question: And the TGI (A498 renal)?
Answer: 3.8 µM

Question: And the GI50 (SK-MEL-28 melanoma)?
Answer: 1950 nM

Question: And the TGI (SK-MEL-28 melanoma)?
Answer: 3.41 µM

Question: And the GI50 (SK-OV-3 ovarian)?
Answer: 4.5 µM

Question: And the TGI (SK-OV-3 ovarian)?
Answer: 15.9 µM

Question: What about the GI50 (IGROV1 ovarian) of the same molecule?
Answer: 2020 nM

Question: What about the TGI (IGROV1 ovarian) of the same molecule?
Answer: 4.16 µM

Question: And the GI50 (HOP-92 NSCLC)?
Answer: 2000 nM

Question: And the TGI (HOP-92 NSCLC)?
Answer: 3.57 µM

Question: What about the GI50 (NCI-H460 NSCLC) of the same molecule?
Answer: > 100 µM

Question: And the TGI (NCI-H460 NSCLC)?
Answer: > 100 µM

Question: What about the GI50 (OVCAR-3 ovarian) of the same molecule?
Answer: 1520 nM

Question: What about the TGI (OVCAR-3 ovarian) of the same molecule?
Answer: 2870 nM

Question: And the GI50 (SF-295 CNS)?
Answer: 19.5 µM

Question: And the TGI (SF-295 CNS)?
Answer: 34.6 µM

Question: What about the GI50 (CCRF-CEM leukemia) of the same molecule?
Answer: 386 nM

Question: And the TGI (CCRF-CEM leukemia)?
Answer: 1350 nM

Question: What about the GI50 (ACHN renal) of the same molecule?
Answer: 1620 nM

Question: And the TGI (ACHN renal)?
Answer: 3.01 µM

Question: What about the GI50 (UACC-257 melanoma) of the same molecule?
Answer: 1830 nM

Question: And the TGI (UACC-257 melanoma)?
Answer: 3.23 µM

Question: What about the GI50 (MALME-3M melanoma) of the same molecule?
Answer: 2270 nM

Question: And the TGI (MALME-3M melanoma)?
Answer: 3.74 µM

Question: What about the GI50 (TK-10 renal) of the same molecule?
Answer: 1650 nM

Question: And the TGI (TK-10 renal)?
Answer: 3.03 µM

Question: And the GI50 (MOLT-4 leukemia)?
Answer: 344 nM

Question: What about the TGI (MOLT-4 leukemia) of the same molecule?
Answer: 1090 nM

Question: And the GI50 (NCI/ADR-RES ovarian)?
Answer: 2780 nM

Question: And the TGI (NCI/ADR-RES ovarian)?
Answer: 5.64 µM

Question: What about the GI50 (SK-MEL-2 melanoma) of the same molecule?
Answer: 445 nM

Question: What about the TGI (SK-MEL-2 melanoma) of the same molecule?
Answer: 1290 nM

Question: What about the GI50 (UACC-62 melanoma) of the same molecule?
Answer: 1680 nM

Question: What about the TGI (UACC-62 melanoma) of the same molecule?
Answer: 3.1 µM

Question: What about the GI50 (A549 NSCLC) of the same molecule?
Answer: 3.54 µM

Question: And the TGI (A549 NSCLC)?
Answer: 11.8 µM

Question: What about the GI50 (NCI-H23 lung) of the same molecule?
Answer: 1980 nM

Question: What about the TGI (NCI-H23 lung) of the same molecule?
Answer: 3.62 µM

Question: What about the GI50 (OVCAR-8 ovarian) of the same molecule?
Answer: 1660 nM

Question: What about the TGI (OVCAR-8 ovarian) of the same molecule?
Answer: 3.06 µM

Question: And the GI50 (EKVX NSCLC)?
Answer: 3.02 µM

Question: And the TGI (EKVX NSCLC)?
Answer: 8.07 µM

Question: What about the GI50 (RXF 393 renal) of the same molecule?
Answer: 1710 nM

Question: What about the TGI (RXF 393 renal) of the same molecule?
Answer: 3.11 µM

Question: What about the GI50 (HL-60(TB) leukemia) of the same molecule?
Answer: 148 nM

Question: And the TGI (HL-60(TB) leukemia)?
Answer: 281 nM

Question: And the GI50 (M14 melanoma)?
Answer: 1710 nM

Question: What about the TGI (M14 melanoma) of the same molecule?
Answer: 3.16 µM
